ChEMBL document CHEMBL1201862, “PubChem BioAssay data set” (2004)
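Method: 48-hour compound exposure of cells in 96-well plates, five concentrations, linear interpolation of endpoints. GI50: concentration for 50% inhibition of growth.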 Activity calls are given as the source filed them. No stated cut-off is given here; in the data, active = GI50 up to about 1.1 µM and inactive = higher.

Legend:
Experiment in all cases: growth of human tumour cells (NCI), 48 h
DMS-114 = test system: DMS-114
UO-31 = test system: UO-31
IGROV-1 = test system: IGROV-1
SK-OV-3 = test system: SK-OV-3
SW-620 = test system: SW-620
DLD-1 = test system: DLD-1
HCT-116 = test system: HCT-116
Malme-3M = test system: Malme-3M
NCI-H522 = test system: NCI-H522
OVCAR-8 = test system: OVCAR-8
SK-MEL-5 = test system: SK-MEL-5
HCT-15 = test system: HCT-15
OVCAR-5 = test system: OVCAR-5
CAKI-1 = test system: CAKI-1
SNB-75 = test system: SNB-75
HOP-92 = test system: HOP-92
DMS-273 = test system: DMS-273
HOP-18 = test system: HOP-18
HOP-62 = test system: HOP-62
UACC-62 = test system: UACC-62
MOLT-4 = test system: MOLT-4
RPMI-8226 = test system: RPMI-8226
HL-60 = test system: HL-60
OVCAR-3 = test system: OVCAR-3
NCI-H23 = test system: NCI-H23
A549 = test system: A549
HT-29 = test system: HT-29
TK-10 = test system: TK-10
CCRF-CEM = test system: CCRF-CEM
NCI-H460 = test system: NCI-H460
SF-268 = test system: SF-268
SK-MEL-2 = test system: SK-MEL-2
K562 = test system: K562
U-251 = test system: U-251
786-0 = test system: 786-0
SF-295 = test system: SF-295
SN12C = test system: SN12C
SNB-78 = test system: SNB-78
RXF 393 = test system: RXF 393
EKVX = test system: EKVX
COLO 205 = test system: COLO 205
OVCAR-4 = test system: OVCAR-4
UACC-257 = test system: UACC-257
SK-MEL-28 = test system: SK-MEL-28
XF498 = test system: XF498
SNB-19 = test system: SNB-19
HCC 2998 = test system: HCC 2998
LXFL 529 = test system: LXFL 529
KM-20L2 = test system: KM-20L2
A498 = test system: A498
SR = test system: SR
M19-MEL = test system: M19-MEL
M14 = test system: M14
NCI-H226 = test system: NCI-H226
ACHN = test system: ACHN
SF-539 = test system: SF-539
LOX IMVI = test system: LOX IMVI

CC(=O)OC1(C#N)CC2OC1C1N=NN(C(=O)OC(C)(C)C)C21 (configuration not stated) was tested. Which GI50 (DMS-114) did it give?
Its GI50 is 13.2 µM (inactive).

And the GI50 (UO-31)?
The GI50 was > 100 µM (inactive).

And the GI50 (IGROV-1)?
The GI50 was > 31.6 µM (inactive).

And the GI50 (SK-OV-3)?
The GI50 was > 100 µM (inactive).

What about the GI50 (SW-620) of the same compound?
The GI50 was 14.6 µM (inactive).

And the GI50 (DLD-1)?
Its GI50 is 14.7 µM (inactive).

What about the GI50 (HCT-116) of the same compound?
Its GI50 is 10.9 µM (inactive).

What about the GI50 (Malme-3M) of the same compound?
The GI50 was 34.7 µM (inactive).

And the GI50 (NCI-H522)?
The GI50 was > 100 µM (inactive).

What about the GI50 (OVCAR-8) of the same compound?
The GI50 was 30.3 µM (inactive).

And the GI50 (SK-MEL-5)?
The GI50 was > 31.6 µM (inactive).

What about the GI50 (HCT-15) of the same compound?
The GI50 was 13.8 µM.

And the GI50 (OVCAR-5)?
The GI50 was > 100 µM (inactive).

What about the GI50 (CAKI-1) of the same compound?
Its GI50 is > 31.6 µM (inactive).

And the GI50 (SNB-75)?
Its GI50 is 70.1 µM (inactive).

And the GI50 (HOP-92)?
Its GI50 is 20.7 µM (inactive).

What about the GI50 (DMS-273) of the same compound?
Its GI50 is 36.5 µM (inactive).

What about the GI50 (HOP-18) of the same compound?
The GI50 was > 100 µM (inactive).

What about the GI50 (HOP-62) of the same compound?
Its GI50 is > 100 µM (inactive).

What about the GI50 (UACC-62) of the same compound?
Its GI50 is 18.8 µM (inactive).

And the GI50 (MOLT-4)?
The GI50 was 34 µM (inactive).

What about the GI50 (RPMI-8226) of the same compound?
Its GI50 is 30.3 µM (inactive).

What about the GI50 (HL-60) of the same compound?
The GI50 was 20.6 µM (inactive).

And the GI50 (OVCAR-3)?
Its GI50 is 43.1 µM (inactive).

And the GI50 (NCI-H23)?
Its GI50 is > 10 µM (inactive).

And the GI50 (A549)?
Its GI50 is > 10 µM (inactive).

What about the GI50 (HT-29) of the same compound?
The GI50 was > 100 µM (inactive).

What about the GI50 (TK-10) of the same compound?
Its GI50 is > 100 µM (inactive).

What about the GI50 (CCRF-CEM) of the same compound?
Its GI50 is 15.1 µM (inactive).

And the GI50 (NCI-H460)?
The GI50 was > 100 µM (inactive).

What about the GI50 (SF-268) of the same compound?
The GI50 was 61.1 µM (inactive).

What about the GI50 (SK-MEL-2) of the same compound?
Its GI50 is 11.2 µM (inactive).

What about the GI50 (K562) of the same compound?
Its GI50 is 29.9 µM (inactive).

And the GI50 (U-251)?
The GI50 was > 100 µM (inactive).

And the GI50 (786-0)?
Its GI50 is > 100 µM (inactive).

And the GI50 (SF-295)?
Its GI50 is > 100 µM (inactive).

And the GI50 (SN12C)?
Its GI50 is 39.7 µM (inactive).

What about the GI50 (SNB-78) of the same compound?
Its GI50 is 21.1 µM (inactive).

What about the GI50 (RXF 393) of the same compound?
Its GI50 is > 31.6 µM (inactive).

What about the GI50 (EKVX) of the same compound?
Its GI50 is 55.1 µM (inactive).

What about the GI50 (COLO 205) of the same compound?
Its GI50 is > 100 µM (inactive).

What about the GI50 (OVCAR-4) of the same compound?
The GI50 was 28.4 µM (inactive).

What about the GI50 (UACC-257) of the same compound?
The GI50 was 20.4 µM (inactive).

And the GI50 (SK-MEL-28)?
The GI50 was 16.9 µM (inactive).

What about the GI50 (XF498) of the same compound?
Its GI50 is 89.7 µM (inactive).

And the GI50 (SNB-19)?
The GI50 was > 100 µM (inactive).

What about the GI50 (HCC 2998) of the same compound?
The GI50 was > 100 µM (inactive).

And the GI50 (LXFL 529)?
The GI50 was 32.3 µM (inactive).

What about the GI50 (KM-20L2) of the same compound?
The GI50 was > 100 µM (inactive).

And the GI50 (A498)?
The GI50 was > 100 µM (inactive).

And the GI50 (SR)?
The GI50 was 15 µM (inactive).

And the GI50 (M19-MEL)?
The GI50 was > 100 µM (inactive).

And the GI50 (M14)?
Its GI50 is 21.7 µM (inactive).

What about the GI50 (NCI-H226) of the same compound?
Its GI50 is 3.76 µM (inactive).

And the GI50 (ACHN)?
Its GI50 is > 100 µM (inactive).

What about the GI50 (SF-539) of the same compound?
Its GI50 is 9.75 µM (inactive).

And the GI50 (LOX IMVI)?
The GI50 was 17.2 µM (inactive).
